Measurements reported in patent publication US8399442B2, “Pharmaceutical compounds” (priority 2005, dated 2013).
Structures can show the parent of a compound that is named as a salt. Values belong to the compound of their own block, whether it stands above or below them.

What was measured:
[1] = Physicochemical parameters (pKa, logP, logD)
[2] = physchem; conditions: water, thermodynamic from solid
[3] = physchem; conditions: water
[4] = molecular target: T1, Chk2 (Homo sapiens, UniProt O96017); test: Kinase inhibitory activity assay (Upstate, 33P-ATP); type: biochemical; conditions: read-out: Inhibition of kinases in vitro, % at 30 nM
T1 construct: purchased Upstate Discovery Ltd
Procedure: Where inhibition was high an IC50 was determined.

[5] = tested on: primary human mammary epithelial cells; conditions: 24 h

T1 sequence (O96017 whole entry): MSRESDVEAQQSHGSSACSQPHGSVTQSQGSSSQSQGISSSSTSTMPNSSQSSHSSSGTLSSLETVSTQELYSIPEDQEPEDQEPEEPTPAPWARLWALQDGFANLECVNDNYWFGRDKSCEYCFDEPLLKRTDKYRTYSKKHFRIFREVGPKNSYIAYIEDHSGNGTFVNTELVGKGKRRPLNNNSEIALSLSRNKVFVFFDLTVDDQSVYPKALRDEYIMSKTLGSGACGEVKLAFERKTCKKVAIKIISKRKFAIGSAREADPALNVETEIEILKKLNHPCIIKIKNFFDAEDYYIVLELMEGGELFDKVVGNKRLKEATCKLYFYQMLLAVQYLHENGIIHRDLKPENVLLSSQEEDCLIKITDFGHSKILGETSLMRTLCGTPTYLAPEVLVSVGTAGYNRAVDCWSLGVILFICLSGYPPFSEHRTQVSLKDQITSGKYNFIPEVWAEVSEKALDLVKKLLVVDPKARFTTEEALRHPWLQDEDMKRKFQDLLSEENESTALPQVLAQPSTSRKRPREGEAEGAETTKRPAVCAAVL

- logP [1]: 3.24
- logPion [1]: 0.36
- logD ([1]; pH=6): 2.27
- logD ([1]; pH=6.5): 2.68
- logD ([1]; pH=7.4): 3.11
Compound: 1-(2,6-difluorophenyl)-N-[3-(5-morpholin-4-ylmethyl-1H-benzimidazol-2-yl)-1H-pyrazol-4-yl]-urea

- melting point: 190 °C
Compound: O=C(Nc1c[nH]nc1-c1nc2cc(CN3CCOCC3)ccc2[nH]1)Nc1c(F)cccc1F (as salt: hydrochloride) [1-(2,6-difluorophenyl)-N-[3-(5-morpholin-4-ylmethyl-1H-benzimidazol-2-yl)-1H-pyrazol-4-yl]-urea]

Compound: O=C(Nc1c[nH]nc1-c1nc2cc(CN3CCOCC3)ccc2[nH]1)NC1CC1 [Acetate]
- solubility [2]: > 100 mg/mL
- solubility ([3]; thermodynamic from solid): > 25 mg/mL

Compound: O=C(Nc1c[nH]nc1-c1nc2cc(CN3CCOCC3)ccc2[nH]1)NC1CC1 [D-Gluconate]
- solubility ([3]; thermodynamic from solid): > 25 mg/mL

Compound: O=C(Nc1c[nH]nc1-c1nc2cc(CN3CCOCC3)ccc2[nH]1)NC1CC1 [D-Glucuronate]
- solubility [2]: > 100 mg/mL
- solubility [3]: > 25 mg/mL
- solubility at 20 h ([3]; thermodynamic from solid): > 50 mg/mL

Compound: O=C(Nc1c[nH]nc1-c1nc2cc(CN3CCOCC3)ccc2[nH]1)NC1CC1 [compound of formula (I^0)]
- inhibition at 0.03 µM [4]: 41%
- effect of treatment on normal cells cf. tumor cells [5]: fewer become multinucleated or die after treatment, but instead undergo reversible G2/M arrest
